Results reported in patent US20240246950A1, “Anilino-Pyrazole Derivatives, Compositions and Methods Thereof” (Ensem Therapeutics, priority 2022, published 2024).
Read-outs that look alike come from different tables or passages of the source.

Columns and labels:
GSK3β = GSK3β (Homo sapiens, UniProt P49841); assay: In vitro kinase TR-FRET assay GSK3β; type: biochemical; settings: enzyme 0.6 nM, ATP 7.6 μM
Method: (§1) In vitro kinase TR-FRET assays: CDK2/CycA2, CDK2/CycE1, CDK1/cyclinB and GSK3β
(§2) The test compounds were prepared as 10 mM stock solution in 100% DMSO. The stock solution was then serially diluted 3-fold in 100% DMSO to 10 concentrations. 200 nL of each diluted compound solution was transferred to 384-well plate in duplicate. To each well, 5 uL of enzyme and ATP mixture solution containing enzyme CDK2/CycA2, CDK2/CycE1, CDK1/cyclinB, or GSK30 (final concentrations 3 nM, 0.6 nM, 0.3 nM, 0.6 nM, respectively) and ATP (final concentrations 27 μM, 82 μM, 56 μM, 7.6 μM, respectively) in the assay buffer (50 mM HEPES, pH7.5, 10 mM MgCl2, 1 mM DTT, 0.01% BSA, 0.01% Triton X-100). For negative control, 5 uL of assay buffer was added instead. The plate was incubated at room temperature for 10 min. 5 uL of peptide solution containing ULight-4E-BP1 peptide (final concentrations 50 nM) in the assay buffer was subsequently added into each well to initiate the reaction. By incubation at room temperature for 1 hour, 10 uL of 2 nM Eu-anti-phospho-4E BP1 antibody was then added for detection. After one hour incubation at room temperature, all samples were subjected to read the TR-FRET signal on Envision with excitation at 340 nm and emission fluorescence at 615 nm and 665 nm. IC50 values were then calculated by plotting dose-response curves and then using the XLfit application in Excel software.

CDK1/cyclinB = CDK1/cyclinB (Homo sapiens, UniProt P06493); assay: In vitro kinase TR-FRET assay CDK1/cyclinB; type: biochemical; settings: enzyme 0.3 nM, ATP 56 μM
Chain of CDK1/cyclinB (P06493 whole entry): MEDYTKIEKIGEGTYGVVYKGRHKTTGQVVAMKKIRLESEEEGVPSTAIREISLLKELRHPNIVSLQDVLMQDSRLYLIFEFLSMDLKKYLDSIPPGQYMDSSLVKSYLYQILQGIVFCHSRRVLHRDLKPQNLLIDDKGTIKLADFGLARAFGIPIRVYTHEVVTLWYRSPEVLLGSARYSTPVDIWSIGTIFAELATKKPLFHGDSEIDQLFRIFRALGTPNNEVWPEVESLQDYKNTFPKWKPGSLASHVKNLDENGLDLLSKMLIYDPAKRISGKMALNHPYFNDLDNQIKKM
Chain of CDK1/cyclinB (P14635 whole entry partner): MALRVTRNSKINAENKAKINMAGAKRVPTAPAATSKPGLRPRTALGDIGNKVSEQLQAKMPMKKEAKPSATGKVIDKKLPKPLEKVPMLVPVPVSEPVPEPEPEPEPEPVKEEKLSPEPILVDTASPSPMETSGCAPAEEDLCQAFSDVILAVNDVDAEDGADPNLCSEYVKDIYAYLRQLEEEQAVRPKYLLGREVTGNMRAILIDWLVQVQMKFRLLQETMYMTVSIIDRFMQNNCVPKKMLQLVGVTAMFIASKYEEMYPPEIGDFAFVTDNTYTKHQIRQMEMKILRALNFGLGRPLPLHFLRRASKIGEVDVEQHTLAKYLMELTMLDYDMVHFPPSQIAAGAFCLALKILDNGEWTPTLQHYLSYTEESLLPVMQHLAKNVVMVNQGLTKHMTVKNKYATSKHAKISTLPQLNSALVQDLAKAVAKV
Method: as §1, §2

OVCAR3 = assay: Cell proliferation (CyQUANT) OVCAR3; type: cell-based; settings: OVCAR3, 7 days, read-out: Anti-proliferation assay: IC50 (nM) [Cell Line: OVCAR3]
Method: (§3) Cancer cell lines, namely, OVCAR3, TOV21G were seeded onto 96 well cell culture plates at a density of 2500, 1000 or 3000 cells/well, respectively and cultured overnight. Cells treated with test compounds at 3-fold dose titration for 7 days at maximum final DMSO concentration of 0.01%. The CyQUANT® Cell Proliferation Assay, a highly sensitive fluorescence-based method for quantifying cells and assessing cell proliferation and cytotoxicity was employed, following manufacturer's procedure (ThermnoFisher, Cataloge #C35012). Plates were scanned with a laser-based Acumen Cellistra instrument by TTP LabTech at Ex/Em 480/520 nm. % Inhibition is calculated based on DMSO control wells on the same plate (ie, DMSO wells have 100% growth and 0% growth inhibition).

CDK2/CycE1 = CDK2/CycE1 (Homo sapiens, UniProt P24941); assay: In vitro kinase TR-FRET assay CDK2/CycE1; type: biochemical; settings: enzyme 0.6 nM, ATP 82 μM, read-out: CDK2 cyclinE1 activity assay: IC50
Method: as §1, §2

TOV21G = assay: Cell proliferation (CyQUANT) TOV21G; type: cell-based; settings: 7 days, read-out: Anti-proliferation assay: IC50 (nM) [Cell Line: TOV21G]
Method: as §3

CDK2/CycA2 = CDK2/CycA2 (Homo sapiens, UniProt P24941); assay: In vitro kinase TR-FRET assay CDK2/CycA2; type: biochemical; settings: enzyme 3 nM, ATP 27 μM, read-out: CDK2 cyclinA2 activity assay: IC50
Method: as §1, §2

Chain of GSK3β (P49841 whole entry, species assumed): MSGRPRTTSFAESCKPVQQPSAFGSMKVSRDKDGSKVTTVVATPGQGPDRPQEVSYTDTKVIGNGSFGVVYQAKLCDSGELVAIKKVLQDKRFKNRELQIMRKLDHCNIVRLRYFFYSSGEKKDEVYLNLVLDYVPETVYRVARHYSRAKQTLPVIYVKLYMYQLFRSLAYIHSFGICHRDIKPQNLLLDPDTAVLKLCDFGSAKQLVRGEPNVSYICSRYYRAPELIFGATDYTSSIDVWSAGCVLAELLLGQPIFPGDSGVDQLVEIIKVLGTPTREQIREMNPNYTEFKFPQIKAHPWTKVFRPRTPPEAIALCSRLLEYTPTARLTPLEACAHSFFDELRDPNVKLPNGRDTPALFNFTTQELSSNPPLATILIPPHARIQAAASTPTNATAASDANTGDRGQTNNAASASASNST

IC50 (GSK3β) | IC50 (CDK1/cyclinB) | IC50 (OVCAR3; Homo sapiens, OVCAR-3, 168 h) | IC50 (CDK2/CycE1) | IC50 (CDK2/CycA2) | IC50 (OVCAR3) | Compound | IC50 (TOV21G; Homo sapiens, 168 h) | IC50 (TOV21G)
50 to 500 nM | 50 to 500 nM | ≤ 500 nM | < 50 nM | < 50 nM | – | CC(C)NC(=O)OC1CCC(c2cc(Nc3ccc4c(c3)CN(C)S4(=O)=O)[nH]n2)C1 (racemic) [Example 23, 3-(5-((2-methyl-1,1-dioxido-2,3-dihydrobenzo[d]isothiazol-5-yl)amino)-1H-pyrazol-3-yl)cyclopentyl isopropylcarbamate] | ≥ 1000 nM | –
50 to 500 nM | 50 to 500 nM | ≤ 500 nM | < 50 nM | < 50 nM | – | CC(C)NC(=O)O[C@@H]1CC[C@H](c2cc(Nc3ccc4c(c3)S(=O)(=O)CC4)n[nH]2)C1 [Example 19, (1R,3S)-3-(3-((1,1-dioxido-2,3-dihydrobenzo[b]thiophen-6-yl)amino)-1H-pyrazol-5-yl)cyclopentyl isopropylcarbamate] | ≤ 500 nM | –
50 to 500 nM | < 50 nM | ≤ 500 nM | < 50 nM | < 50 nM | – | CC(C)NC(=O)O[C@@H]1CC[C@H](c2cc(Nc3ccc4c(c3)S(=O)(=O)NC4)n[nH]2)C1 [Example 17, (1R,3S)-3-(3-((1,1-dioxido-2,3-dihydrobenzo[d]isothiazol-6-yl)amino)-1H-pyrazol-5-yl)cyclopentyl isopropylcarbamate] | ≤ 500 nM | –
500 to 1000 nM | 500 to 1000 nM | ≥ 1000 nM | < 50 nM | < 50 nM | – | CC(C)NC(=O)O[C@@H]1CC[C@H](c2cc(Nc3ccc4c(c3)CNC4=O)n[nH]2)C1 [Example 8, (1R,3S)-3-(3-((1-oxoisoindolin-5-yl)amino)-1H-pyrazol-5-yl)cyclopentyl isopropylcarbamate] | ≥ 1000 nM | –
500 to 1000 nM | 50 to 500 nM | 500 to 1000 nM | < 50 nM | < 50 nM | – | CC(C)NC(=O)O[C@@H]1CC[C@H](c2cc(Nc3ccc4c(c3)oc(=O)n4C)n[nH]2)C1 [Example 34, (1R,3S)-3-{5-[(3-methyl-2-oxobenzo[d][1,3]oxazol-6-yl)amino]-2H-pyrazol-3-yl}cyclopentyl (prop-2-ylamino)methanoate] | ≥ 1000 nM | –
50 to 500 nM | 50 to 500 nM | 500 to 1000 nM | < 50 nM | < 50 nM | – | CC(C)NC(=O)O[C@@H]1CC[C@H](c2cc(Nc3ccc4c(c3)C(=O)NC4=O)n[nH]2)C1 [Example 4, (1R,3S)-3-(3-((1,3-dioxoisoindolin-5-yl)amino)-1H-pyrazol-5-yl)cyclopentyl isopropylcarbamate] | ≥ 1000 nM | –
< 50 nM | < 50 nM | ≤ 500 nM | < 50 nM | < 50 nM | – | CC(C)NC(=O)O[C@H]1C[C@@H](c2cc(Nc3nccc4c3CCS4(=O)=O)n[nH]2)C1 [Example 70, (1s,3s)-3-(3-((1,1-dioxido-2,3-dihydrothieno[3,2-c]pyridin-4-yl)amino)-1H-pyrazol-5-yl)cyclobutyl isopropylcarbamate] | ≤ 500 nM | –
500 to 1000 nM | 50 to 500 nM | ≤ 500 nM | < 50 nM | < 50 nM | – | CC(C)NC(=O)O[C@@H]1CC[C@H](c2cc(Nc3ccc4c(c3)CS(=O)(=O)N4C)n[nH]2)C1 [Example 42, (1R,3S)-3-{5-[(1-methyl-2,2-dioxo-1,3-dihydro-2%6-benzo[c][1,2]thiazol-5-yl)amino]-2H-pyrazol-3-yl}cyclopentyl (prop-2-ylamino)methanoate] | ≤ 500 nM | –
500 to 1000 nM | < 50 nM | ≤ 500 nM | < 50 nM | < 50 nM | – | CC(C)NC(=O)O[C@@H]1CC[C@H](c2cc(Nc3cccc4c3CCNS4(=O)=O)n[nH]2)C1 [Example 61, (1R,3S)-3-(3-((1,1-dioxido-3,4-dihydro-2H-benzo[e][1,2]thiazin-5-yl)amino)-1H-pyrazol-5-yl)cyclopentyl isopropylcarbamate] | ≤ 500 nM | –
> 1000 nM | 50 to 500 nM | ≤ 500 nM | < 50 nM | < 50 nM | – | CC(C)NC(=O)O[C@@H]1CC[C@H](c2cc(Nc3cccc4c3CN(C)S4(=O)=O)n[nH]2)C1 [Example 47, (1R,3S)-3-(3-((2-methyl-1,1-dioxido-2,3-dihydrobenzo[d]isothiazol-4-yl)amino)-1H-pyrazol-5-yl)cyclopentyl isopropylcarbamate] | ≤ 500 nM | –
> 1000 nM | 50 to 500 nM | ≥ 1000 nM | < 50 nM | < 50 nM | – | CC(C)NC(=O)O[C@H]1CC[C@@H](c2cc(Nc3ccc4c(c3)S(=O)(=O)NC4)n[nH]2)CC1 [Example 37, (1s,4s)-4-(3-((1,1-dioxido-2,3-dihydrobenzo[d]isothiazol-6-yl)amino)-1H-pyrazol-5-yl)cyclohexyl isopropylcarbamate] | ≥ 1000 nM | –
50 to 500 nM | < 50 nM | ≤ 500 nM | < 50 nM | < 50 nM | – | CC(C)NC(=O)O[C@@H]1CC[C@H](c2cc(Nc3ccc4c(c3)C(C)NS4(=O)=O)[nH]n2)C1 (stereo partly drawn) [Example 10, (1R,3S)-3-(5-((3-methyl-1,1-dioxido-2,3-dihydrobenzo[d]isothiazol-5-yl)amino)-1H-pyrazol-3-yl)cyclopentyl isopropylcarbamate] | ≥ 1000 nM | –
> 1000 nM | < 50 nM | ≤ 500 nM | < 50 nM | < 50 nM | – | CC(C)NC(=O)O[C@H]1CC[C@@H](c2cc(Nc3ccc4c(c3)CCNS4(=O)=O)n[nH]2)CC1 [Example 11, (1s,4s)-4-{3-[(1,1-dioxo-3,4-dihydro-2H-1λ^6,2-benzothiazin-6-yl)amino]-1H-pyrazol-5-yl}cyclohexyl N-(propan-2-yl)carbamate] | ≥ 1000 nM | –
> 1000 nM | 50 to 500 nM | ≤ 500 nM | < 50 nM | < 50 nM | – | CC(C)NC(=O)O[C@H]1CC[C@@H](c2cc(Nc3cccc4c3CCS4(=O)=O)n[nH]2)CC1 [Example 49, (1s,4s)-4-(3-((1,1-dioxido-2,3-dihydrobenzo[b]thiophen-4-yl)amino)-1H-pyrazol-5-yl)cyclohexyl isopropylcarbamate] | 500 to 1000 nM | –
500 to 1000 nM | 50 to 500 nM | – | < 50 nM | < 50 nM | ≤ 500 nM | (1s,4s)-4-{5-[(1,1-dioxo-2,3-dihydro-1λ^6-benzothiophen-5-yl)amino]-2H-pyrazol-3-yl}cyclohexyl (prop-2-ylamino)methanoate [Example 16] | – | ≥ 1000 nM

Compound | IC50 (GSK3β) | IC50 (CDK1/cyclinB) | IC50 (OVCAR3; Homo sapiens, OVCAR-3, 168 h) | IC50 (CDK2/CycE1) | IC50 (CDK2/CycA2) | IC50 (OVCAR3) | IC50 (TOV21G; Homo sapiens, 168 h) | IC50 (TOV21G)
CC(C)NC(=O)O[C@@H]1CC[C@H](c2cc(Nc3ccc4c(c3)CCC4=O)n[nH]2)C1 [Example 25, (1R,3S)-3-{5-[(1-oxo-2,3-dihydro-1H-inden-5-yl)amino]-2H-pyrazol-3-yl}cyclopentyl (prop-2-ylamino)methanoate] | 50 to 500 nM | 50 to 500 nM | ≤ 500 nM | < 50 nM | < 50 nM | – | ≥ 1000 nM | –
CC(C)NC(=O)O[C@@H]1CC[C@H](c2cc(Nc3ccc4c(c3)CCC4C#N)n[nH]2)C1 (stereo partly drawn) [Example 29, (1R,3S)-3-{5-[(1-cyano-2,3-dihydro-1H-inden-5-yl)amino]-2H-pyrazol-3-yl}cyclopentyl (prop-2-ylamino)methanoate] | 50 to 500 nM | 50 to 500 nM | 500 to 1000 nM | < 50 nM | < 50 nM | – | ≥ 1000 nM | –
